What all share (format): cell-based
In one experiment the target is T1, mouse SMO^WT (Mus musculus, UniProt P56726).
T1 construct: expressed in transfected cells
As to the kind of experiment: Mouse assay: Gli1 qPCR in MEF cells stably expressing mouse SMO WT. The following applies: mSHh-treated, 24 hours; for IC50: Gli1 inhibition by qPCR, read-out: Mouse WT pIC50 (converted); for Mouse WT % Inh: percentage Gli1 inhibition. How it is done: (§1) Cell culture. All materials were purchased from Sigma-Aldrich, unless otherwise stated.
(§2) Compound treatment. […] After 1 hour incubation, cells were treated with assay medium containing mSHh prepared at 2.5× of final assay concentrations specified in the text and incubated for a further 24 hours at 37′C in a humidified 95% air/5% CO2 atmosphere prior to qPCR analysis.
(§3) Cell lysis and one-step qPCR. The Cells-to-CT™ 1-Step TaqMan® Kit was used in conjunction with TaqMan primer-probe assays for the detection of Gli1 (FAM, Mm00494654_m1) and Gusb (VIC, Mm01197698_m1) genes (all purchased from Life Technologies). Following 24 hours cell treatment, spent medium was removed and cells were washed with PBS before the application of lysis and stop solution as per manufacturer's instructions. The qPCR reactions were run in a 384-well PCR plate using master mix prepared according to manufacturer's instructions and cell lysate samples from treatment wells. Real-time PCR amplification was detected using the Bio-Rad CFX384 Touch PCR system. Four experimental replicates (two cell replicates and two qPCR replicates) were performed for each compound concentration tested. Real-time data were analysed using the CFX Maestro software (Bio-Rad) and obtained expression values were converted to percentage Gli1 inhibition by normalising to the average Gli1 expression of mSHh-treated control samples.

In a further experiment the target is T2, mouse SMO^D473H (Mus musculus, UniProt P56726, D477H).
T2 construct: expressed in transfected cells
T2 sequence (P56726 33-793 D477H): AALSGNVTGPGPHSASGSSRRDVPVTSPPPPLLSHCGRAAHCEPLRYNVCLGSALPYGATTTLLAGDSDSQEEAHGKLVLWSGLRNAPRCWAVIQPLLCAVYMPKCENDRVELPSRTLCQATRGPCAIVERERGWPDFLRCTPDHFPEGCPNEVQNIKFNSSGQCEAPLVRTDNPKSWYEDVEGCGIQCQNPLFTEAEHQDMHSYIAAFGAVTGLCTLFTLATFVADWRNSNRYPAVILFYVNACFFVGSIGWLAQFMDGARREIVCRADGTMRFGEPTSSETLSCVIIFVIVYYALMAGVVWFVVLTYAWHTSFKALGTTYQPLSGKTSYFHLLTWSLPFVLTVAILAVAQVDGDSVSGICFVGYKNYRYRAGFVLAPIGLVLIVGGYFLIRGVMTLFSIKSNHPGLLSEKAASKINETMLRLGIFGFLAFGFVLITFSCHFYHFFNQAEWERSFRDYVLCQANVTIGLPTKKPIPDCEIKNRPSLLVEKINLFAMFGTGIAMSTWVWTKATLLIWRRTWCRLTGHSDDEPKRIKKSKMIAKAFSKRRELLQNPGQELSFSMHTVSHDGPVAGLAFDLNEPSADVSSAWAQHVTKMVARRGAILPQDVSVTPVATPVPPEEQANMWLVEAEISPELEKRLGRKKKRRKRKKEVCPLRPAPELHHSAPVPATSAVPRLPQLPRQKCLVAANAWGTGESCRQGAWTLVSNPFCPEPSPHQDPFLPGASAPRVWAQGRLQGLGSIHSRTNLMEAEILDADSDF
The experiment in a line: Mouse assay: Gli1 qPCR in MEF cells stably expressing mouse SMO D473H. The conditions noted are these: mSHh-treated, 24 hours; for IC50: Gli1 inhibition by qPCR, read-out: Mouse D473H pIC50 (converted); for Mouse D473H % Inh: percentage Gli1 inhibition. On the procedure: as §1, §2, §3
(In general: Quantitative PCR measures a nucleic acid by following its amplification.)

The next experiment concerns the target T3, mouse SMO^W535L (Mus musculus, UniProt P56726, W539L).
T3 construct: expressed in transfected cells
The experiment in a line: Mouse assay: Gli1 qPCR in MEF cells stably expressing mouse SMO W535L. The following applies: mSHh-treated, 24 hours; for IC50: Gli1 inhibition by qPCR, read-out: Mouse W535L pIC50 (converted); for Mouse W535L % Inh: percentage Gli1 inhibition. How it is done:
as §1, §2, §3

T1 sequence (P56726 33-793): as the sequence (P56726 33-793 D477H) above, with H445D counted along it
T3 sequence (P56726 33-793 W539L): as the sequence (P56726 33-793 D477H) above, with H445D, W507L counted along it

As to `O=C(Nc1ccc(-c2nc(-c3cccc(Oc4nccs4)c3)n[nH]2)cc1)c1cccc(CN2CCS(=O)(=O)CC2)c1` [Example 3-13, 3-[(1,1-Dioxo-1,4-thiazinan-4-yl)methyl]-N-[4-[3-[3-(1,3-thiazol-2-yloxy)phenyl]-1H-1,2,4-triazol-5-yl]phenyl]benzamide], at mouse SMO^WT, the IC50 is 79.4 nM and the “Mouse WT % Inh” value was 97.4%. On mouse SMO^D473H, the IC50 is 631 nM and the “Mouse D473H % Inh” value stood at 78.5%. On mouse SMO^W535L, the IC50 is greater than 3310 nM and the “Mouse W535L % Inh” value stood at 76.7%.
For `O=C(Nc1ccc(-c2nc(-c3ccc(COc4ccccc4F)cc3)n[nH]2)cc1)c1cccc(CN2CCS(=O)(=O)CC2)c1` [Example 3-14, 3-[(1,1-Dioxo-1,4-thiazinan-4-yl)methy]-N-[4-[3-[4-[(2-fluorophenoxy)methyl]phenyl]-1H-1,2,4-triazol-5-yl]phenyl]benzamide], at mouse SMO^WT, the IC50 was 39.8 nM and the “Mouse WT % Inh” value was 97.3%. At mouse SMO^D473H, the IC50 was 251 nM and the “Mouse D473H % Inh” value is on record as 95.2%. Besides, at mouse SMO^W535L, the IC50 is 631 nM and the “Mouse W535L % Inh” value was found to be 50.9%.
On to `O=C(Nc1ccc(-c2nc(-c3ccccn3)n[nH]2)cc1)c1cccc(CN2CCS(=O)(=O)CC2)c1` [Example 3-15, 3-[(1,1-Dioxo-1,4-thiazinan-4-yl)methyl]-N-[4-(3-pyridin-2-yl-1H-1,2,4-triazol-5-yl)phenyl]benzamide], for which, on mouse SMO^WT, the IC50 was 79.4 nM and the “Mouse WT % Inh” value is given as 98.9%. Also, on mouse SMO^D473H, the IC50 is 1000 nM and the “Mouse D473H % Inh” value amounted to 97.0%. At mouse SMO^W535L, the IC50 is 398 nM and the “Mouse W535L % Inh” value was determined as 53.4%.
On to `O=C(Nc1ccc(-c2nc(-c3ccc(C(F)(F)F)s3)n[nH]2)cc1)c1cccc(CN2CCS(=O)(=O)CC2)c1` [Example 3-16, 3-[(1,1-Dioxo-1,4-thiazinan-4-yl)methyl]-N-[4-[3-[5-(trifluoromethyl)thiophen-2-yl]-1H-1,2,4-triazol-5-yl]phenyl]benzamide], for which, on mouse SMO^WT, the IC50 was 100 nM and the “Mouse WT % Inh” value was 99.4%. Also, on mouse SMO^D473H, the IC50 was 794 nM and the “Mouse D473H % Inh” value is given as 93.9%. On mouse SMO^W535L, the IC50 is 794 nM and the “Mouse W535L % Inh” value was found to be 58.5%.
For `O=C(Nc1ccc(-c2nc(Cc3ccccc3)n[nH]2)cc1)c1cccc(CN2CCS(=O)(=O)CC2)c1` [Example 3-17, N-[4-(3-Benzyl-1H-1,2,4-triazol-5-yl)phenyl]-3-[(1,1-dioxo-1,4-thiazinan-4-yl)methyl]benzamide], on mouse SMO^WT, the IC50 is 6.31 nM and the “Mouse WT % Inh” value stood at 99.4%. For the same molecule, at mouse SMO^D473H, the IC50 is 100 nM and the “Mouse D473H % Inh” value is given as 99.0%. Further, on mouse SMO^W535L, the IC50 is 39.8 nM and the “Mouse W535L % Inh” value was found to be 54.3%.
Regarding `Cc1ccc(Cc2n[nH]c(-c3ccc(NC(=O)c4cccc(CN5CCS(=O)(=O)CC5)c4)cc3)n2)cc1` [Example 3-18, 3-[(1,1-Dioxo-1,4-thiazinan-4-yl)methyl]-N-[4-[5-[(4-methylphenyl)methyl]-1H-1,2,4-triazol-3-yl]phenyl]benzamide], at mouse SMO^WT, the IC50 is 3.16 nM and the “Mouse WT % Inh” value was found to be 98.5%. On mouse SMO^D473H, the IC50 was 79.4 nM and the “Mouse D473H % Inh” value was 98.1%. Besides, at mouse SMO^W535L, the IC50 is 25.1 nM and the “Mouse W535L % Inh” value is recorded as 65.7%.
For the molecule `O=C(Nc1ccc(-c2nc(Cc3ccccc3F)n[nH]2)cc1)c1cccc(CN2CCS(=O)(=O)CC2)c1` [Example 3-19, 3-[(1,1-Dioxo-1,4-thiazinan-4-yl)methy]-N-[4-[3-[(2-fluorophenyl)methyl]-1H-1,2,4-triazol-5-yl]phenyl]benzamide], on mouse SMO^WT, the IC50 was 25.1 nM and the “Mouse WT % Inh” value is 99.1%. At mouse SMO^D473H, the IC50 is 316 nM and the “Mouse D473H % Inh” value came out at 96.9%. Also, on mouse SMO^W535L, the IC50 was 39.8 nM and the “Mouse W535L % Inh” value is recorded as 64.3%.
Take `O=C(Nc1ccc(-c2nc(Cc3cccc(F)c3)n[nH]2)cc1)c1cccc(CN2CCS(=O)(=O)CC2)c1` [Example 3-20, 3-[(1,1-Dioxo-1,4-thiazinan-4-yl)methy]-N-[4-[3-[(3-fluorophenyl)methyl]-1H-1,2,4-triazol-5-yl]phenyl]benzamide]: on mouse SMO^WT, the IC50 is 15.8 nM and the “Mouse WT % Inh” value was 99.0%. On mouse SMO^D473H, the IC50 is 251 nM and the “Mouse D473H % Inh” value is 96.8%. Besides, at mouse SMO^W535L, the IC50 is 25.1 nM and the “Mouse W535L % Inh” value is given as 66.1%.
In the case of `O=C(Nc1ccc(-c2nc(Cc3ccc(F)cc3)n[nH]2)cc1)c1cccc(CN2CCS(=O)(=O)CC2)c1` [Example 3-21, 3-[(1,1-Dioxo-1,4-thiazinan-4-yl)methy]-N-[4-[3-[(4-fluorophenyl)methyl]-1H-1,2,4-triazol-5-yl]phenyl]benzamide], on mouse SMO^WT, the IC50 was 100 nM and the “Mouse WT % Inh” value was 97.5%. In addition, at mouse SMO^D473H, the IC50 was 794 nM and the “Mouse D473H % Inh” value worked out at 82.3%. On mouse SMO^W535L, the IC50 was 501 nM and the “Mouse W535L % Inh” value turned out to be 64.1%.
With `COc1cccc(Cc2n[nH]c(-c3ccc(NC(=O)c4cccc(CN5CCS(=O)(=O)CC5)c4)cc3)n2)c1` [Example 3-22, 3-[(1,1-Dioxo-1,4-thiazinan-4-yl)methy]-N-[4-[5-[(3-methoxyphenyl)methyl]-1H-1,2,4-triazol-3-yl]phenyl]benzamide], on mouse SMO^WT, the IC50 is 7.94 nM and the “Mouse WT % Inh” value was determined as 98.5%. At mouse SMO^D473H, the IC50 was 63.1 nM and the “Mouse D473H % Inh” value was 98.2%. Besides, at mouse SMO^W535L, the IC50 was 31.6 nM and the “Mouse W535L % Inh” value worked out at 60.1%.
On to `O=C(Nc1ccc(-c2nc(Cc3ccc(Cl)cc3)n[nH]2)cc1)c1cccc(CN2CCS(=O)(=O)CC2)c1` [Example 3-23, N-[4-[3-[(4-Chlorophenyl)methyl]-1H-1,2,4-triazol-5-yl]phenyl]-3-[(1,1-dioxo-1,4-thiazinan-4-yl)methyl]benzamide], for which, on mouse SMO^WT, the IC50 is 7.94 nM and the “Mouse WT % Inh” value worked out at 99.5%. Further, on mouse SMO^D473H, the IC50 was 316 nM and the “Mouse D473H % Inh” value was 95.0%. Further, at mouse SMO^W535L, the IC50 was 25.1 nM and the “Mouse W535L % Inh” value was determined as 58.2%.
For `Cc1ccc(Cc2n[nH]c(-c3ccc(NC(=O)c4cccc(CN5CCS(=O)(=O)CC5)c4)cc3)n2)cc1C` [Example 3-25, N-[4-[5-[(3,4-Dimethylphenyl)methyl]-1H-1,2,4-triazol-3-yl]phenyl]-3-[(1,1-dioxo-1,4-thiazinan-4-yl)methyl]benzamide], on mouse SMO^WT, the IC50 is 2 nM and the “Mouse WT % Inh” value worked out at 98.5%. On mouse SMO^D473H, the IC50 was 100 nM and the “Mouse D473H % Inh” value is given as 97.4%. At mouse SMO^W535L, the IC50 was 39.8 nM and the “Mouse W535L % Inh” value is on record as 80.5%.
Regarding `O=C(Nc1ccc(-c2nc(Cc3cc(Cl)ccc3Cl)n[nH]2)cc1)c1cccc(CN2CCS(=O)(=O)CC2)c1` [Example 3-26, N-[4-[3-[(2,5-Dichlorophenyl)methyl]-1H-1,2,4-triazol-5-yl]phenyl]-3-[(1,1-dioxo-1,4-thiazinan-4-yl)methyl]benzamide], on mouse SMO^WT, the IC50 is 15.8 nM and the “Mouse WT % Inh” value was 98.3%. For the same molecule, at mouse SMO^D473H, the IC50 was 501 nM and the “Mouse D473H % Inh” value is 87.1%. Moreover, at mouse SMO^W535L, the IC50 was 251 nM and the “Mouse W535L % Inh” value was found to be 64.8%.
Consider `Cc1cc(Cc2n[nH]c(-c3ccc(NC(=O)c4cccc(CN5CCS(=O)(=O)CC5)c4)cc3)n2)ccc1Br` [Example 3-27, N-[4-[5-[(4-Bromo-3-methylphenyl)methyl]-1H-1,2,4-triazol-3-yl]phenyl]-3-[(1,1-dioxo-1,4-thiazinan-4-yl)methyl]benzamide], for which, on mouse SMO^WT, the IC50 is 15.8 nM and the “Mouse WT % Inh” value is reported as 99.3%. At mouse SMO^D473H, the IC50 was 631 nM and the “Mouse D473H % Inh” value worked out at 97.0%. Further, at mouse SMO^W535L, the IC50 is 158 nM and the “Mouse W535L % Inh” value was 57.3%.
`O=C(Nc1ccc(-c2nc(Cc3ccc4c(c3)OCCO4)n[nH]2)cc1)c1cccc(CN2CCS(=O)(=O)CC2)c1` [Example 3-28, N-[4-[3-(2,3-Dihydro-1,4-benzodioxin-6-ylmethyl)-1H-1,2,4-triazol-5-yl]phenyl]-3-[(1,1-dioxo-1,4-thiazinan-4-yl)methyl]benzamide]: at mouse SMO^WT, the IC50 is 79.4 nM and the “Mouse WT % Inh” value is on record as 99.4%. At mouse SMO^D473H, the IC50 was 794 nM and the “Mouse D473H % Inh” value amounted to 97.7%. In addition, on mouse SMO^W535L, the IC50 was 316 nM and the “Mouse W535L % Inh” value is reported as 59.7%.

Values taken from patent publication US20250136559A1, “SMO MODULATOR COMPOUNDS” (OMASS THERAPEUTICS LIMITED, priority 2022, published 2025).
